Measured values: PubChem BioAssay (NCI)
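Where inhibition never reached the appropriate level, the endpoint shown equals the highest concentration tested. Otherwise, values were interpolated linearly from a five-concentration, 48-hour dose response in 96-well plates. GI50 is the concentration that inhibits growth by half. The concentration for full growth arrest is given as TGI.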

Assays:
Experiment in all cases: NCI anticancer screen, dose series, 48 h
ACHN renal = test system: ACHN renal
HCT-15 colon = test system: HCT-15 colon
NCI-H460 lung = test system: NCI-H460 lung
SK-MEL-2 melanoma = test system: SK-MEL-2 melanoma
SF-295 CNS = test system: SF-295 CNS
UACC-62 melanoma = test system: UACC-62 melanoma
OVCAR-4 ovarian = test system: OVCAR-4 ovarian
HT29 colon = test system: HT29 colon

Structure (SMILES) | GI50 (ACHN renal) | TGI (ACHN renal) | GI50 (HCT-15 colon) | TGI (HCT-15 colon) | GI50 (NCI-H460 lung) | TGI (NCI-H460 lung) | GI50 (SK-MEL-2 melanoma) | TGI (SK-MEL-2 melanoma) | GI50 (SF-295 CNS) | TGI (SF-295 CNS) | GI50 (UACC-62 melanoma) | TGI (UACC-62 melanoma) | GI50 (OVCAR-4 ovarian) | TGI (OVCAR-4 ovarian) | GI50 (HT29 colon) | TGI (HT29 colon)
CC1(C)CCc2c(c(N=Nc3ccccc3F)c3ccccc3c2O)O1 | 22 µM | 52.5 µM | 78.3 µM | > 100 µM | 38.3 µM | > 100 µM | > 100 µM | > 100 µM | 17.8 µM | 44 µM | > 100 µM | > 100 µM | 66.2 µM | > 100 µM | – | –
C#Cc1cccc(NC(=O)c2cccc(NC(=O)CCl)c2)c1 | 15.2 µM | 42.9 µM | 5.2 µM | 19.1 µM | 5.49 µM | 20 µM | 62.8 µM | > 82.5 µM | 51.1 µM | > 82.5 µM | 26.9 µM | > 82.5 µM | 15.8 µM | 33.9 µM | 8.18 µM | 33.4 µM
O=C(Nc1cccc(C(F)(F)F)c1)c1ccc(NC2=C(Cl)C(=O)N(Cc3ccccc3)C2=O)cc1 | 15.3 µM | 29.5 µM | 4.41 µM | 18.9 µM | 5.91 µM | 57 µM | 7.04 µM | 24.2 µM | 10.1 µM | 23.6 µM | 12.9 µM | 25.5 µM | 25.8 µM | 54.7 µM | 13.6 µM | 52 µM
O=S(=O)(O)n1ccnc1 (tested in a mixture with another compound) | – | > 100 µM | – | > 100 µM | – | > 100 µM | – | > 100 µM | – | > 100 µM | – | > 100 µM | – | > 100 µM | – | > 100 µM
FC(F)(F)c1cc(NC(=S)N2c3ccccc3-n3cccc3C2c2cccnc2)cc(C(F)(F)F)c1 (stereo not drawn) | 7.11 µM | 62 µM | 4.76 µM | 27.7 µM | 10.5 µM | 23.4 µM | 12.7 µM | 31.6 µM | 5.52 µM | 21.1 µM | 11.7 µM | 24.4 µM | 6.24 µM | 23.8 µM | 12.5 µM | 34.5 µM
C#CCOC(=O)/C=C/C(=O)Oc1ccc2c(C)cc(=O)oc2c1 | > 100 µM | > 100 µM | > 100 µM | > 100 µM | > 100 µM | > 100 µM | > 100 µM | > 100 µM | > 100 µM | > 100 µM | > 100 µM | > 100 µM | > 100 µM | > 100 µM | > 100 µM | > 100 µM
Fc1ccc(-c2ncn(CCCN3CCOCC3)c2-c2ccncc2)cc1 | > 25 µM | > 25 µM | > 25 µM | > 25 µM | > 25 µM | > 25 µM | > 25 µM | > 25 µM | > 25 µM | > 25 µM | > 25 µM | > 25 µM | > 25 µM | > 25 µM | > 25 µM | > 25 µM
COc1ccc(-c2cc(-c3ccc(OC)cc3)nc(NCCCNc3ccnc4cc(Cl)ccc34)n2)cc1 | 1.82 µM | 3.22 µM | 1.68 µM | 3.45 µM | 1.77 µM | 3.32 µM | 14 µM | 28.4 µM | 13.9 µM | 32 µM | 2.76 µM | 7.26 µM | 1.65 µM | 3.35 µM | 1.56 µM | 3.06 µM
O=C(O)CN1C(=O)CN=C(c2ccccn2)c2cc(Cl)ccc21 | – | > 100 µM | – | > 100 µM | – | > 100 µM | – | > 100 µM | – | > 100 µM | – | > 100 µM | – | > 100 µM | – | > 100 µM
COc1ccc(CNCCCN2C(=O)c3ccc4c5c(ccc(c35)C2=O)C(=O)N(CCCNCc2ccc(OC)c(OC)c2OC)C4=O)c(OC)c1OC | 0.107 µM | 0.257 µM | 0.244 µM | 0.952 µM | 0.121 µM | 0.336 µM | 0.0911 µM | 0.191 µM | 0.119 µM | 0.331 µM | 0.093 µM | 0.182 µM | 0.0599 µM | 0.127 µM | 0.0522 µM | 0.244 µM
COc1ccc(C2CC(c3ccc(OC)cc3O)=NN2c2ccc(S(N)(=O)=O)cc2)cc1 (stereo not drawn) | 5.86 µM | > 100 µM | 5.98 µM | > 100 µM | 6.74 µM | 39.2 µM | 17.1 µM | 85.9 µM | 29.4 µM | > 100 µM | 8.76 µM | > 100 µM | 30.8 µM | > 100 µM | 11.1 µM | > 100 µM
